Like-named read-outs stand apart in the source and are kept apart here. Where no end group is shown, it is not given here.

The subject of one experiment is Staphylococcus camosus. Kind of experiment: Radial Diffusion Assay using minimal conditions (MEC). It counts as cell-based. To be noted: Table 8. How it is done: (§1) A modified version of a previously published protocol has been applied in the detection of antimicrobial activity (Lehrer et al., (1991) Ultra sensitive assays for endogenous antimicrobial polypeptides J Immunol Methods 137: 167-173). Target bacteria (10^6 colony forming units (CFU)) were added to 10 ml of underlay agarose (1% low electro-endosmosis agarose, 0.03% Trypticase soy broth, 10 mM sodium phosphate, pH 7.4, 37 degrees Celsius). Suspension was solidified on an INTEGRID Petri Dish (Becton Dickinson Labware). A 3 mm Gel Puncher was used to make holes in the underlay agarose (Amersham Pharmacia Biotech, Sweden). Samples were added to the holes and incubated at 37 degrees Celsius, 3 hours. An overlay was poured on top and the plate was incubated overnight (LB media, 7.5% Agar). Antimicrobial activity was seen as bacterial clearing zones around the wells. Living cells was counterstained by adding 10 ml, 0.2 mM MTT (3-(4,5-Dimethylthiazol-2-yl)-2,5-diphenyltetrazolium bromide Thiazolyl blue).
(§2) The antimicrobial activity of the polypeptides of the invention was also analyzed in a Radial Diffusion Assay (see Example 1) using minimal conditions. Two bacterial strains were tested in this setup; Staphylococcus camosus and Escherichia coli Top10. The amino acid sequence of the polypeptides and the Minimal Effective Concentration (MEC, microgram/ml) obtained is presented in table 8 below.

A further experiment deals with Escherichia coli Top10. The experiment is described as above. It counts as cell-based. The following applies: Table 8. Here is the method: as §1, §2
The subject of experiment [1] is Micrococcus luteus (ATCC9341). It counts as cell-based. The following applies: ATCC9341. Here is the method: (§3) According to the NCCLS guidelines for susceptibility test of novel antimicrobial compounds, we found a broad spectrum of activity of Cat1 (Methods for Dilution Antimicrobial Susceptibility Tests for Bacteria That Grow Aerobically; Approved Standard-Fifth Edition. NCCLS document M7-A5 (ISBN1-56238-394-9)).
(§4) In another campaign, the specific MICs of Cat1 were determined against a variety of microbial strains relevant for wound infections. As recommended in the above-mentioned NCCLS protocol, the strains were grown in cationic adjusted Muller-Hinton Broth. The highest concentration tested was 32 μg/ml.
(§5) The antimicrobial activity of the polypeptides of the invention was analyzed using the Microdilution Broth Assay (see Example 1) with Mueller Hinton Broth (MHB) media. Four different bacterial strains were tested in this setup; Micrococcus luteus (ATCC 9341), Pseudomonas aeruginosa (ATCC 27853), Escherichia coli (ATCC 10536) and Klebsiella pneumoniae (DSM681). The amino acid sequence of the polypeptides and the Minimal Inhibitory concentrations (MIC, microgram/ml) obtained is presented in Table 7 below.

Experiment [2] relates to Pseudomonas aeroginosa (ATCC27853). It counts as cell-based, Pseudomonas aeruginosa. The following applies: ATCC27853. Here is the method:
as §3, §4
Minimal inhibitory concentrations of Cat1 were also determined using cation-adjusted Mueller hinton broth (MHB) in the microbroth dilution assay, wherein MHB was used with different modifications as depicted in Table 2 below. The selected test organism was Pseudomonas aeroginosa (ATCC 27853). […]

The next experiment deals with E. coli TOP10. The experiment is classed as cell-based. Here is the method: A range of synthetic antimicrobial polypeptides were expressed in E. coli TOP10 (Invitrogen) using arabinose as inducer, as disclosed in Example 1 of International patent application WO 00/73433 (with minor modifications). […] Briefly, fresh overnight cultures grown in RM medium containing 0.2% glucose and ampicillin (100 μg/ml) were diluted 300-fold into 150 microliter of RM containing 0.2% glycerol and ampicillin (100 μg/ml) and different concentrations of arabinose (0, 0.01% or 0.1%) in a microtiter plate and incubated at 37 degrees Celsius with vigorous shaking. The growth curve was monitored by measuring OD450 using a Bioscreen C Microbiology reader (Thermo Electron Corporation) at intervals of 30 minutes for 14 hours (see Invitrogen protocol of the pBAD/gill A, B and C vectors catalogue nos. V450-01 for buffer and media composition). The percentage of growth inhibition was calculated as the end point OD measurement of each sample divided by the end point OD measurement obtained from cells containing the control vector and multiplied by 100. The formula is the following: [formula] where “blank OD” corresponds to the OD of an empty well.

Experiment [3] concerns Eschericia coil (ATCC10536). It counts as cell-based, Escherichia coli. The following applies: ATCC10536. How it is done:
as §3, §5

Experiment [4] relates to Klebsiella pneumoniae (DSM681). It counts as cell-based. Here is the method: as §3, §5
The mark [5] stands for this setting: Table 4, 0.01% arabinose, end point OD450, 14 hours.
The mark [6] stands for this setting: Table 4, 0.1% arabinose, end point OD450, 14 hours.
Where [7] appears, read: Table 5, 0.1% arabinose, end point OD450, 14 hours.

Consider “GLLKRLGRKIGKKLKKIAR [SEQ ID NO: 66, GLLKRLGRKIGKKLKKIAR]”, for which the MEC in the experiment with Staphylococcus camosus is 2 µg/mL; in the experiment with Escherichia coli Top10, 13.5 µg/mL. Also, the results for the MIC in experiment [1], in experiment [2] and in experiment [3] were 64 µg/mL, 64 µg/mL and 8 µg/mL, respectively. Moreover, the “Growth inhibition using 0.01% arabinose (%)” value in the experiment with E. coli TOP10 (TOP10, 14 h) is listed as 92%. Further, the “Growth inhibition using 0.1% arabinose (%)” value with E. coli TOP10 (TOP10, 14 h) is listed as 100%.

Turning to “GLLRRFRKKIGKKLKKIAR [SEQ ID NO: 62, GLLRRFRKKIGKKLKKIAR]”, the MEC with Staphylococcus camosus turned out to be 1.1 µg/mL; in the experiment with Escherichia coli Top10, 28.0 µg/mL. Besides, the MIC (commonly the least concentration at which growth counts as inhibited) in experiment [4] is 32 to 64 µg/mL; in experiment [1], 64 µg/mL; in experiment [2], 64 µg/mL; in experiment [3], 16 µg/mL. Besides, the “Growth inhibition using 0.01% arabinose (%)” value with E. coli TOP10 (TOP10, 14 h) was found to be 94%. The “Growth inhibition using 0.1% arabinose (%)” value with E. coli TOP10 (TOP10, 14 h) is reported as 98%.

For “GLLRRFWKKIGKKLKKFGQKIKPLPKLVP [SEQ ID NO: 41]”, the MEC in the experiment with Staphylococcus camosus amounted to 3.8 µg/mL; in the experiment with Escherichia coli Top10, 16.6 µg/mL. Further, the MIC in experiment [4] was determined as 32 µg/mL; in experiment [1] it was 32 µg/mL; in experiment [2], 16 µg/mL; in experiment [3], 32 µg/mL. Also, in the experiment on E. coli TOP10 (TOP10, 14 h), the “Growth inhibition using 0.1% arabinose (%)” value stood at 96%.

For the sequence “GLLRRLRKKIGKKLKKIAR [SEQ ID NO: 59, GLLRRLRKKIGKKLKKIAR]”, the MEC was found to be 1.8 µg/mL in the experiment on Staphylococcus camosus and 18.3 µg/mL in the experiment on Escherichia coli Top10. Besides, the MIC in experiment [4] came out at 32 µg/mL; in experiment [1] it was 32 µg/mL; in experiment [2] it was 8 µg/mL; in experiment [3], 16 µg/mL. Moreover, the “Growth inhibition using 0.01% arabinose (%)” value in the experiment on E. coli TOP10 (TOP10, 14 h) turned out to be 93%. Moreover, in the experiment with E. coli TOP10 (TOP10, 14 h), the “Growth inhibition using 0.1% arabinose (%)” value is recorded as 100%.

Turning to “GLLRRLWRKIGRKLKKYGQKIKALRKLVP [SEQ ID NO: 13]”, the MEC with Staphylococcus camosus is 4.4 µg/mL; in the experiment with Escherichia coli Top10 it was 27.0 µg/mL. In addition, the MIC came to 32 µg/mL in experiment [4], 32 µg/mL in experiment [1], 32 µg/mL in experiment [2] and 64 µg/mL in experiment [3]. Moreover, in the experiment with E. coli TOP10 (TOP10, 14 h), the “Growth inhibition using 0.01% arabinose (%)” value is given as 96%. The “Growth inhibition using 0.1% arabinose (%)” value in the experiment on E. coli TOP10 (TOP10, 14 h) was 100%.

For “GRFKRFWKKIGRKFKKIGQMLKPIRILVP (Synthetic antimicrobial peptide) [SEQ ID NO: 9]”, in the experiment with E. coli TOP10 (setting [5]), the “Growth inhibition using 0.01% arabinose (%)” value was found to be 96%. For the same sequence, the “Growth inhibition using 0.1% arabinose (%)” value in the experiment on E. coli TOP10 (setting [6]) is given as 100%.

Turning to “GRFKRLRKKIGKKFKKIGQKIKDIRKLIVP (GRFKRLRKKIGKKFKKIGQKIKDIRKLVP; Synthetic antimicrobial peptide) [SEQ ID NO: 51]”, the “Growth inhibition using 0.1% arabinose (%)” value in the experiment on E. coli TOP10 (setting [7]) is on record as 97%.

For “GRFRRFRKKIGGKLKKIGQVIKDIRILVP (Synthetic antimicrobial peptide) [SEQ ID NO: 28]”, the “Growth inhibition using 0.1% arabinose (%)” value in the experiment on E. coli TOP10 (setting [7]) amounted to 95%.

In the case of “GRFRRFRKKIGKKFKKFGQMIKALRILVP (Synthetic antimicrobial peptide) [SEQ ID NO: 29]”, the “Growth inhibition using 0.1% arabinose (%)” value in the experiment with E. coli TOP10 (setting [7]) came out at 95%.

For “GRFRRFRKKIGKKLKKIGLVIKHIRILVP (Synthetic antimicrobial peptide) [SEQ ID NO: 14]”, in the experiment with E. coli TOP10 (setting [5]), the “Growth inhibition using 0.01% arabinose (%)” value was found to be 94%. Moreover, the “Growth inhibition using 0.1% arabinose (%)” value with E. coli TOP10 (setting [6]) is 100%.

In the case of “GRFRRLGRKIGEKLKKFGQVIKAIRILVP (Synthetic antimicrobial peptide) [SEQ ID NO: 42]”, the “Growth inhibition using 0.1% arabinose (%)” value with E. coli TOP10 (setting [7]) worked out at 95%.

As to “GRIKRVGEKIGKKLKKIGQVIKHLRILVP (Synthetic antimicrobial peptide) [SEQ ID NO: 38]”, the MEC in the experiment on Staphylococcus camosus worked out at 8 µg/mL; in the experiment on Escherichia coli Top10, 8.5 µg/mL. In addition, in the experiment with E. coli TOP10 (setting [7]), the “Growth inhibition using 0.1% arabinose (%)” value is 96%.

In the case of “GRIRRLRRKIRKKLKKYGQKIKAIRKIVP (GRLRRLRRKIRKKLKKYGQKIKAIRKLVP; Synthetic antimicrobial peptide) [SEQ ID NO: 27]”, the “Growth inhibition using 0.1% arabinose (%)” value in the experiment on E. coli TOP10 (setting [7]) came out at 96%.

Consider “GRLRRFGKKIGKKIKKFGQLIKALRILVP (GRLRRFGKKIGKKLKKFGQLIKALRILVP; Synthetic antimicrobial peptide) [SEQ ID NO: 40]”, for which the “Growth inhibition using 0.1% arabinose (%)” value in the experiment on E. coli TOP10 (setting [7]) is 95%.

For the sequence “GRLRRFRKKIGKKLKKIGQMIKHIRILVP (Synthetic antimicrobial peptide) [SEQ ID NO: 30]”, the “Growth inhibition using 0.1% arabinose (%)” value in the experiment on E. coli TOP10 (setting [7]) worked out at 95%.

With “GRLRRLGKIUGEKLKKFGQMIKHIRILVP (GRLRRLGKKIGEKLKKFGQMIKHIRILVP; Synthetic antimicrobial peptide) [SEQ ID NO: 53]”, the “Growth inhibition using 0.1% arabinose (%)” value in the experiment with E. coli TOP10 (setting [7]) came out at 84%.

In the case of “GRLRRLRRKIGEKLKKFGQVIKALRILVP (Synthetic antimicrobial peptide) [SEQ ID NO: 12]”, the “Growth inhibition using 0.01% arabinose (%)” value with E. coli TOP10 (setting [5]) is listed as 94%. Further, in the experiment with E. coli TOP10 (setting [6]), the “Growth inhibition using 0.1% arabinose (%)” value amounted to 99%.

On to “GRLRRLWRKIGRKLKKYGQVIKHLRILVP (Synthetic antimicrobial peptide) [SEQ ID NO: 17]”, for which the “Growth inhibition using 0.01% arabinose (%)” value in the experiment with E. coli TOP10 (setting [5]) stood at 94%. Further, the “Growth inhibition using 0.1% arabinose (%)” value with E. coli TOP10 (setting [6]) is on record as 100%.
